US11623924B2, “Modulators of alpha-1 antitrypsin” (Vertex Pharmaceuticals Incorporated, priority 2018, dated 2023)

Target: T1, NL20 human bronchial epithelial cells expressing human Z-AAT (Homo sapiens, UniProt P01009, E366K)
T1 construct: expressed in transfected cells; host or cells: NL20 human bronchial epithelial cells (NL20-SI line, doxycycline added)
Experiment: AAT Function Assay (MSD Assay NL20-SI Cell Line)
Type: cell-based
Settings: functionally active AAT (AAT-hNE complex) in supernatant of NL20 cells expressing human Z-AAT; read-out: NL20 Func. (EC50)
Summary of the method: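 NL20 cells expressing Z-AAT, seeded 16,000 cells/well, received compound with doxycycline (0.1 μM final) and were incubated overnight at 37° C. Supernatants, diluted 45-fold in total, reacted with excess human neutrophil elastase; AAT-elastase complex captured on anti-AAT plates, detected with Sulfo-tagged anti-elastase by MSD electrochemiluminescence, and quantified against M-AAT standards (0.156-320 ng/mL).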

T1 sequence (P01009 25-418 E366K): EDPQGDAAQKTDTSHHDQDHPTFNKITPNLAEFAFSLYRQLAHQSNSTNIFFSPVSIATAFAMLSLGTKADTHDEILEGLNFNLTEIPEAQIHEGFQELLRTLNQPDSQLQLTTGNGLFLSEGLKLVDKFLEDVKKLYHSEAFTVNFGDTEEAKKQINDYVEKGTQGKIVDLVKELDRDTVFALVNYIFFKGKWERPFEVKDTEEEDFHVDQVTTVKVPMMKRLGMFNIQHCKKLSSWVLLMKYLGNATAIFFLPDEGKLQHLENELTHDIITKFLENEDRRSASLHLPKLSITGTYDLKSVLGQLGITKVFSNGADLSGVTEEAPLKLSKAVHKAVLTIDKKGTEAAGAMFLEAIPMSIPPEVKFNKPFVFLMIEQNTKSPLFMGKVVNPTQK

SMILES	EC50 [µM]
O=C(O)CCc1c(C2CCOCC2)n(-c2ccc(F)c(F)c2)c2cc3cn[nH]c3cc12 [Compound 64, 3-[5-(3,4-difluorophenyl)-6-tetrahydropyran-4-yl-1H-pyrrolo[2,3-f]indazol-7-yl]propanoic Acid]	> 3
O=C(O)[C@H]1C[C@@H](c2c(C3CCOCC3)n(-c3ccc(F)c(F)c3)c3cc4cn[nH]c4cc32)C1 [Compound 65]	> 3
O=C(O)[C@H]1C[C@H](c2c(C3CCOCC3)n(-c3ccc(F)c(F)c3)c3cc4cn[nH]c4cc32)C1 [Compound 66]	1.16 to 3
O=C(O)[C@H]1CC[C@H](c2c(C3CCOCC3)n(-c3ccc(F)c(F)c3)c3cc4cn[nH]c4cc32)CC1 [Compound 75, (1r,4r)-4-(5-(3,4-difluorophenyl)-6-(tetrahydro-2H-pyran-4-yl)-1,5-dihydropyrrolo[2,3-f]indazol-7-yl)cyclohexane-1-carboxylic Acid]	< 1.16
O=C(O)CCc1c(C2CCOCC2)n(-c2ccc(F)c(Cl)c2)c2cc3cn[nH]c3cc12 [Compound 82]	> 3
O=C(O)[C@H]1CC[C@H](Cc2c(C3CCOCC3)n(-c3ccc(F)c(Cl)c3)c3cc4cn[nH]c4cc23)CC1 [Compound 84]	1.16 to 3
Cc1cc(-n2c(C3CCOCC3)c(CCC(=O)O)c3cc4[nH]ncc4cc32)ccc1F [Compound 86]	> 3
Cc1cc(-n2c(C3CCOCC3)c(CC3(C(=O)O)CC3)c3cc4[nH]ncc4cc32)ccc1F [Compound 87]	1.16 to 3
Cc1cc(-n2c(C3CCOCC3)c(CCCC(=O)O)c3cc4[nH]ncc4cc32)ccc1F [Compound 88]	1.16 to 3
Cc1cc(-n2c(C3CCOCC3)c([C@H]3C[C@@H](C(=O)O)C3)c3cc4[nH]ncc4cc32)ccc1F [Compound 99]	> 3
Cc1cc(-n2c(C3CCOCC3)c([C@H]3C[C@H](C(=O)O)C3)c3cc4[nH]ncc4cc32)ccc1F [Compound 100]	1.16 to 3
Cc1cc(-n2c(C3CCOCC3)c(CC34CC(C(=O)O)(C3)C4)c3cc4[nH]ncc4cc32)ccc1F [Compound 103]	> 3
O=C(O)[C@H]1C[C@@H](c2c(C3CCOCC3)n(-c3ccc(F)cc3)c3cc4cn[nH]c4cc32)C1 [Compound 112]	> 3
O=C(O)[C@H]1C[C@H](c2c(C3CCOCC3)n(-c3ccc(F)cc3)c3cc4cn[nH]c4cc32)C1 [Compound 113]	1.16 to 3
O=C(O)[C@H]1CC[C@H](c2c(C3CCOCC3)n(-c3ccc(F)cc3)c3cc4cn[nH]c4cc32)CC1 [Compound 120]	< 1.16
O=C(O)C1CC2(C1)CC(c1c(C3CCOCC3)n(-c3ccccc3)c3cc4cn[nH]c4cc13)C2 (stereo not shown) [Compound 123, 6-(5-phenyl-6-tetrahydropyran-4-yl-1H-pyrrolo[2,3-f]indazol-7-yl)spiro[3.3]heptane-2-carboxylic Acid]	1.16 to 3

SMILES	EC50 [µM]
Cc1cc(F)ccc1-n1c(C2CCOCC2)c(CC2(C(=O)O)CC2)c2cc3[nH]ncc3cc21 [Compound 124, 1-[[5-(4-fluoro-2-methyl-phenyl)-6-tetrahydropyran-4-yl-1H-pyrrolo[2,3-f]indazol-7-yl]methyl]cyclopropanecarboxylic Acid]	1.16 to 3
Cc1cc(-n2c(C3CCOCC3)c(CCC(=O)O)c3cc4[nH]nc(C)c4cc32)ccc1F [Compound 125, 3-[5-(4-fluoro-3-methyl-phenyl)-3-methyl-6-tetrahydropyran-4-yl-1H-pyrrolo[2,3-f]indazol-7-yl]propanoic Acid]	> 3
O=C(O)C1CC2(C1)CC(c1c(C3CCOCC3)n(-c3ccc(F)c(F)c3)c3cc4c(Cl)n[nH]c4cc13)C2 (stereo not shown) [Compound 130, 6-[3-chloro-5-(3,4-difluorophenyl)-6-tetrahydropyran-4-yl-1H-pyrrolo[2,3-f]indazol-7-yl]spiro[3.3]heptane-2-carboxylic Acid]	< 1.16
Cc1c2[nH]ncc2cc2c1c(C1CC3(CC(C(=O)O)C3)C1)c(C1CCOCC1)n2-c1ccc(F)c(F)c1 (stereo not shown) [Compound 131, 6-[5-(3,4-difluorophenyl)-8-methyl-6-tetrahydropyran-4-yl-1H-pyrrolo[2,3-f]indazol-7-yl]spiro[3.3]heptane-2-carboxylic acid]	< 1.16
Cc1c2[nH]ncc2cc2c1c(C1=CC3(C1)CC(C(=O)O)C3)c(C1CCOCC1)n2-c1ccc(F)c(F)c1 (stereo not shown) [Compound 132, 2-[5-(3,4-difluorophenyl)-8-methyl-6-tetrahydropyran-4-yl-1H-pyrrolo[2,3-f]indazol-7-yl]spiro[3.3]hept-2-ene-6-carboxylic Acid]	< 1.16
N#Cc1c2[nH]ncc2cc2c1c(C1CC3(CC(C(=O)O)C3)C1)c(C1CCOCC1)n2-c1ccc(F)c(F)c1 (stereo not shown) [Compound 133, 6-[8-cyano-5-(3,4-difluorophenyl)-6-tetrahydropyran-4-yl-1H-pyrrolo[2,3-f]indazol-7-yl]spiro[3.3]heptane-2-carboxylic acid]	< 1.16
O=C(O)C1CC2(C1)CC(c1c(C3CCOCC3)n(-c3ccc(F)c(F)c3)c3cc4cn[nH]c4c(Br)c13)C2 (stereo not shown) [Compound 134, 6-[8-bromo-5-(3,4-difluorophenyl)-6-tetrahydropyran-4-yl-1H-pyrrolo[2,3-f]indazol-7-yl]spiro[3.3]heptane-2-carboxylic Acid]	< 1.16
Cc1cc(-n2c(C3(C)COC3)cc3cc4[nH]ncc4cc32)ccc1F [Compound 138, 5-(4-fluoro-3-methyl-phenyl)-6-(3-methyloxetan-3-yl)-1H-pyrrolo[2,3-f]indazole]	> 3
Cc1cc(-n2c(C3(C)COC3)c(S(C)(=O)=O)c3cc4[nH]ncc4cc32)ccc1F [Compound 139, 5-(4-fluoro-3-methyl-phenyl)-6-(3-methyloxetan-3-yl)-7-methylsulfonyl-1H-pyrrolo[2,3-f]indazole]	> 3
CC(C)(C)c1c(C#N)c2cc3[nH]ncc3cc2n1-c1ccc(F)cc1 [Compound 143, 6-tert-butyl-5-(4-fluorophenyl)-1H-pyrrolo[2,3-f]indazole-7-carbonitrile]	> 3
Cn1cc(CCCc2c(C3CCOCC3)n(-c3ccc(F)cc3)c3cc4cn[nH]c4cc23)cn1 [Compound 144]	< 1.16
O=C(OCc1ccccc1)N1CCC(Cc2c(C3CCOCC3)n(-c3ccc(F)cc3)c3cc4cn[nH]c4cc23)CC1 [Compound 152, Benzyl 4-[[5-(4-fluorophenyl)-6-tetrahydropyran-4-yl-1H-pyrrolo[2,3-f]indazol-7-yl]methyl]piperidine-1-carboxylate]	1.16 to 3
O=C(OCc1ccccc1)N1CCCC(Cc2c(C3CCOCC3)n(-c3ccc(F)cc3)c3cc4cn[nH]c4cc23)C1 (stereo not shown) [Compound 154, benzyl 3-[[5-(4-fluorophenyl)-6-tetrahydropyran-4-yl-M-pyrrolo[2,3-f]indazol-7-yl]methyl]piperidine-1-carboxylate]	1.16 to 3
CC(=O)NCCCc1c(C2CCOCC2)n(-c2ccc(F)cc2)c2cc3cn[nH]c3cc12 [Compound 156, N-[3-[5-(4-fluorophenyl)-6-tetrahydropyran-4-yl-1H-pyrrolo[2,3-f]indazol-7-yl]propyl]acetamide]	> 3
NC(=O)NCCCc1c(C2CCOCC2)n(-c2ccc(F)cc2)c2cc3cn[nH]c3cc12 [Compound 157, 3-[5-(4-fluorophenyl)-6-tetrahydropyran-4-yl-1H-pyrrolo[2,3-f]indazol-7-yl]propylurea]	> 3

More lines, now with the values ahead:

EC50 [µM]	SMILES
1.16 to 3	Fc1ccc(-n2c(C3CCOCC3)c(Cl)c3cc4[nH]ncc4cc32)cc1 [Compound 63, 7-chloro-5-(4-fluorophenyl)-6-tetrahydropyran-4-yl-1H-pyrrolo[2,3-f]indazole]
> 3	O=C(O)CCc1c(C2CCOCC2)n(-c2ccc(F)cc2)c2cc3cn[nH]c3cc12 [Compound 107]
1.16 to 3	O=C(O)C1(Cc2c(C3CCOCC3)n(-c3ccc(F)cc3)c3cc4cn[nH]c4cc23)CC1 [Compound 111]
1.16 to 3	O=C(O)[C@H]1C[C@@H](Cc2c(C3CCOCC3)n(-c3ccc(F)cc3)c3cc4cn[nH]c4cc23)C1 [Compound 117]
> 3	O=C(O)[C@H]1C[C@H](Cc2c(C3CCOCC3)n(-c3ccc(F)cc3)c3cc4cn[nH]c4cc23)C1 [Compound 118]
1.16 to 3	O=C(O)[C@H]1CC[C@H](Cc2c(C3CCOCC3)n(-c3ccc(F)cc3)c3cc4cn[nH]c4cc23)CC1 [Compound 119]
< 1.16	Fc1ccc(-n2c(C3CCOCC3)c(CC3CCOCC3)c3cc4[nH]ncc4cc32)cc1 [Compound 145]
1.16 to 3	N#CCCc1c(C2CCOCC2)n(-c2ccc(F)cc2)c2cc3cn[nH]c3cc12 [Compound 146]
1.16 to 3	O=S1(=O)CCC(Cc2c(C3CCOCC3)n(-c3ccc(F)cc3)c3cc4cn[nH]c4cc23)CC1 [Compound 147]
1.16 to 3	N#CCCCc1c(C2CCOCC2)n(-c2ccc(F)cc2)c2cc3cn[nH]c3cc12 [Compound 148]
1.16 to 3	COCCc1c(C2CCOCC2)n(-c2ccc(F)cc2)c2cc3cn[nH]c3cc12 [Compound 149]
1.16 to 3	O=S1(=O)CCCN1CCCc1c(C2CCOCC2)n(-c2ccc(F)cc2)c2cc3cn[nH]c3cc12 [Compound 150]
1.16 to 3	CS(=O)(=O)CCc1c(C2CCOCC2)n(-c2ccc(F)cc2)c2cc3cn[nH]c3cc12 [Compound 151]
1.16 to 3	CC(=O)N1CCC(Cc2c(C3CCOCC3)n(-c3ccc(F)cc3)c3cc4cn[nH]c4cc23)CC1 [Compound 153, 1-[4-[[5-(4-fluorophenyl)-6-tetrahydropyran-4-yl-1H-pyrrolo[2,3-f]indazol-7-yl]methyl]-1-piperidyl]ethanone]
> 3	NC(=O)N1CCCC(Cc2c(C3CCOCC3)n(-c3ccc(F)cc3)c3cc4cn[nH]c4cc23)C1 (stereo not shown) [Compound 155, 3-[[5-(4-fluorophenyl)-6-tetrahydropyran-4-yl-1H-pyrrolo[2,3-f]indazol-7-yl]methyl]piperidine-1-carboxamide]
